Data on eight compounds can be found in patent publication US20260344668A1, “PHENYLPYRAZOLE COMPOUND, AND PLANT DISEASE CONTROL METHOD” (priority 2022, published 2026).

Assay [1] has as its system Septoria tritici. Put plainly: Test Example 10 Control Test Against Wheat Leaf Blotch (pot test). Type of assay: in vivo. The conditions noted are these: 200 ppm foliage spray, wheat (Apogee), inoculated after 4 days. On the procedure: (§1) The term of “non-treated well” in Test Example 4, Test Example 5, and Test Example 6 represents a well wherein a test was carried out under the same conditions as those described in each Test Example except for dispensing DMSO instead of a diluted solution with DMSO comprising the Present compound. Also, the term of “non-treated” in Test Examples 15 to 17 represents a test which was carried out under the same conditions as those described in each Test Example except for dispensing DMSO instead of a diluted solution with DMSO comprising the Present compound. Also, the term of “non-treated leaf disk” in Test Example 7 represents a leaf disk wherein a test was carried out under the same conditions as those described in the Test Example except for dispensing DMSO instead of a diluted solution with DMSO comprising the Present compound. Also, the term of “non-treated” in Test Example 10 and Test Example 11 means that a diluted solution with water of a formulation comprising the Present compound was not sprayed.
A plastic pot was filled with soil, wheat (cultivar: Apogee) was seeded thereto, and cultured in a greenhouse for 10 days. […]

In assay [2] the test system is soybean rust fungus (Phakopsora pachyrhizi) having an amino acid substitution of F129L in a mitochondrial cytochrome b protein. The assay is described as follows: Test Example 7 Control Test Against Soybean Rust (leaf disk). Type of assay: in vivo. Conditions: 200 ppm, 10 μL per soybean leaf disk (cultivar: Kurosengoku), inoculated after 1 day. The gist of the method: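 Soybean (Kurosengoku) leaf disks of 1 cm on 1.2% agar were sprayed with compound in a DMSO/xylene/Sorpol emulsion diluted in water to a prescribed concentration. One day later they were spray-inoculated with F129L cytochrome b mutant P. pachyrhizi spores (1.0×10^5/mL) and kept at 23 °C, 60% humidity, 6 h light, for about 13 days. Lesion area was compared with DMSO-treated disks.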

For assay [3], the system named is Phakopsora pachyrhizi. The assay is described as follows: Test Example 11 Control Test Against Soybean Rust (pot test, spraying before inoculation). Type of assay: in vivo. The conditions noted are these: 200 ppm foliage spray, soybeans (Kurosengoku), inoculated after 2 to 5 days. The gist of the method: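 Soybeans (cv. Kurosengoku), grown 10–14 days in pots, foliar-sprayed with formulated compound at 200 ppm, inoculated 2–5 days later with Phakopsora pachyrhizi spores. Kept humid 1–2 days at 23 °C day/20 °C night, then greenhouse 12 days; lesion area scored against unsprayed plants.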

For assay [4], the system named is Phakopsora pachyrhizi. The assay is described as follows: Test Example 16 Control Test Against Soybean Rust Fungus (spore germination, petri dish). Conditions: treatment concentration 10 ppm, 23° C., 1 day. Type of assay: cell-based. On the procedure:
as §1
An agar medium (agar concentration: 1.0%) (3 mL) was placed in a plastic petri dish having a diameter of 3.5 cm, and solidified. Each Present compound was diluted with DMSO in such a way that the resulting diluted solution containing 10000 ppm of the compound, and said solution (1 μL) and an aqueous suspension (1.0×10^4/mL) (999 μL) of spores of Phakopsora pachyrhizi to which spores of Phakopsora pachyrhizi were suspended were mixed, and then the resulting mixture was dispensed into the plastic petri dish. This plastic petri dish was cultured at 23° C. for 1 day, and then germinated spores of Phakopsora pachyrhizi were counted. As a result, when the treatment concentration was 10 ppm, and any one of the Present compound 9, 10, 28, 29, or 32 was used as the test compound to carry out the test, the number of germinated spores in each plastic petri dish using the above each Present compound as the test compound was 50% or less relative to the number of germinated spores in the non-treated plastic petri dish.

For assay [5], the system named is Botrytis cinerea. The assay is described as follows: Test Example 4 Control Test Against Cucumber Botrytis Rot Fungus (96 well titer plate growth). Type of assay: cell-based. The conditions noted are these: 1 μL of 150 ppm DMSO solution + 150 μL complete medium, 18° C., 4 days, absorbance at 550 nm. As for the experimental part: The term of “non-treated well” in Test Example 4, Test Example 5, and Test Example 6 represents a well wherein a test was carried out under the same conditions as those described in each Test Example except for dispensing DMSO instead of a diluted solution with DMSO comprising the Present compound. Also, the term of “non-treated” in Test Examples 15 to 17 represents a test which was carried out under the same conditions as those described in each Test Example except for dispensing DMSO instead of a diluted solution with DMSO comprising the Present compound. Also, the term of “non-treated leaf disk” in Test Example 7 represents a leaf disk wherein a test was carried out under the same conditions as those described in the Test Example except for dispensing DMSO instead of a diluted solution with DMSO comprising the Present compound. […]
The Present compound 24 was diluted with DMSO to obtain a diluted solution containing 150 ppm of the compound, and 1 μL of the diluted solution was dispensed into a titer plate (96 well), and thereto was then dispensed 150 μL of a complete medium to which spores of Botrytis cinerea were inoculated in advance. This plate was cultured at 18° C. for 4 days, thereby allowing Botrytis cinerea to undergo proliferation, and the absorbance at 550 nm of each well of the titer plate was then measured to determine a degree of growth of Botrytis cinerea. […]

In assay [6] the test system is Phakopsora pachyrhizi. Put plainly: Test Example 17 Control Test Against Soybean Rust Fungus (spore germination, petri dish). Conditions: method according to Test Example 16. The format is cell-based. On the procedure: as §1
An agar medium (agar concentration: 1.0%) (3 mL) was placed in a plastic petri dish having a diameter of 3.5 cm, and solidified. […] This plastic petri dish was cultured at 23° C. for 1 day, and then germinated spores of Phakopsora pachyrhizi were counted. […]

With `O=S(=O)(c1ccccc1)n1ccc(-c2ccc(Cl)cc2)n1` [compound 4], the “lesion area relative to the lesion area in the non-treated wheat” value in assay [1] is recorded as at most 30%.

Turning to `O=S(=O)(c1ccccc1)n1ccc(-c2cc(F)c(Br)c(F)c2)n1` [compound 9], the “lesion area relative to the lesion area of non-treated leaf disk” value in assay [2] is at most 30%. Further, the “lesion area relative to the lesion area in the non-treated soybeans” value in assay [3] is given as at most 30%. In addition, the “number of germinated spores relative to the non-treated plastic petri dish” value in assay [4] is at most 50%.

For the compound `O=S(=O)(c1cccnc1)n1ccc(-c2cc(F)c(Br)c(F)c2)n1` [compound 10], in assay [2], the “lesion area relative to the lesion area of non-treated leaf disk” value is listed as at most 30%. For the same compound, the “lesion area relative to the lesion area in the non-treated soybeans” value in assay [3] was at most 30%. In assay [4], the “number of germinated spores relative to the non-treated plastic petri dish” value was at most 50%.

For the compound `COc1ccccc1S(=O)(=O)n1ccc(-c2cc(F)c(Br)c(F)c2)n1` [compound 24], in assay [5], the “degree of growth relative to the degree of growth in the non-treated well” value is at most 50%.

Take `Cc1ccc(S(=O)(=O)n2ccc(-c3ccc(F)cc3)n2)cc1` [compound 29]: in assay [4], the “number of germinated spores relative to the non-treated plastic petri dish” value is reported as at most 50%.

Take `Cn1cnc(S(=O)(=O)n2ccc(-c3cccc(C(=O)NC4CC4)c3)n2)c1` [compound 31]: in assay [1], the “lesion area relative to the lesion area in the non-treated wheat” value is listed as at most 30%.

With `Cn1cnc(S(=O)(=O)n2ccc(-c3cc(F)c(Br)c(F)c3)n2)c1` [compound 32], in assay [2], the “lesion area relative to the lesion area of non-treated leaf disk” value was at most 30%. Besides, the “number of germinated spores relative to the non-treated plastic petri dish” value in assay [4] was at most 50%.

`Cc1ccc(S(=O)(=O)n2ccc(-c3ccc4c(c3)OC(F)(F)O4)n2)cc1` [compound 61]: the “number of germinated spores relative to the non-treated plastic petri dish” value in assay [6] is at most 50%.
